Source: US20110178396A1, “Nicotinamide Derivatives” (CRC FOR BIOMEDICAL IMAGING DEVELOPMENT LTD., priority 2008, published 2011)

Test system: B16F0 melanoma tumour
Test: Biodistribution in B16 melanoma bearing mice
Format: in vivo, C57BL/6J mice
Settings: for Organ distribution Intestine / Organ distribution Liver / Organ distribution Spleen / Organ distribution Stomach / Organ distribution Thyroid / Organ distribution Tumour: B16F0 tumour, mean ± S.D.
Description: Animal experiments were performed in compliance with the NHMRC Australian Code of Practice for the care and use of animals for scientific purposes. Female C57BL/6J black and BALB/c nude albino mice of 5 weeks age were obtained from the Animal Resources Centre, Western Australia. B16F0 murine melanoma cells were originally obtained from European Collection of Cell Cultures (UK) and A375 human amelanotic melanoma cells were originally obtained from American Type Culture Collection (USA). Before transplantation, B16F0 and A375 melanoma cells were maintained as a monolayer in RPMI culture medium supplemented with 10% foetal calf serum and antibiotics and passaged with trypsinisation. Early passages were frozen and stored in liquid nitrogen. Cells were passaged to P=10 and then discarded. Frozen aliquots were grown in a monolayer culture to between 80-95% confluence and for transplantation were trypsinised and washed with Ca^2+ and Mg^2+ free phosphate buffered saline (PBS). For inoculation, B16F0 melanoma cells were resuspended in Ca^2+ and Mg^2+ free PBS at 3 or 5×10^6 viable cells per ml and 0.1 ml was subcutaneously injected at the left flank of 6-7 weeks old C57BL/6J mice. Eleven days later, tumours could be palpated in >98% of inoculated animals. A375 human melanoma cells were resuspended at 1×10^7 viablecells per ml and 0.1 ml was injected subcutaneously at the left flank of 6 weeks old BALB/c nude mice and 25-26 days later tumours could be palpated with ˜60% of inoculated animals developing tumours.
Eleven days (B16F0 melanoma) and 25 days (A375 human melanoma) after tumour transplantation, the [^18F]nicotinamides (0.5-1.5 MBq, 100 μl) and [^123I]nicotinamide (0.37-0.74 MBq, 100 μl) derivatives were injected intravenously via the tail vein into mice (15-18 g). Time points of 1, 3, 6, 24, 48, 72 h after injection were chosen for determining the distribution of each compound in various organs and tissues for the iodine-123 labelled compounds and between 15 min and 6 hours (e.g. 15 min, 30 min, 1 h, 2 h, 4 h or 6 h) were chosen for the ^18F-labelled compounds. At defined times post injection, groups of mice (n=5) were weighed, sacrificed by CO2 administration followed by cervical dislocation and dissected. Selected organs were weighed and their radioactivity measured with a γ-counter. The remaining activity in the carcass was also determined in order to obtain the total activity in the mouse at defined time points. The fraction of injected activity (% ID) in the organ was calculated by comparison with suitable dilutions of the injected dose. Then, the radioactivity concentration in the organ (% ID/g) was found by dividing the % ID for each organ by the weight of the organ.

[1] = B16 tumour, C57BL/6J mice, 1 h, mean ± SD, n = 5
[2] = B16 tumour, C57BL/6J mice, 6 h, mean ± SD, n = 5
[3] = B16 tumour, C57BL/6J mice, 24 h, mean ± SD, n = 5
[4] = B16 melanoma bearing mice, 15 min

`CCCN(CCC)CCCCNC(=O)c1cncc(I)c1` [[^123I]17, N-(4-(Dipropylamino)butyl)-5-iodonicotinamide] was tested, and the “Organ distribution Intestine” value (C57BL/6J mice, 1 h, n = 5) was 15 ± 1 % ID/organ, the “Organ distribution Liver” value (C57BL/6J mice, 1 h, n = 5) was 2.0 ± 0.1 % ID/organ and the “Organ distribution Spleen” value (C57BL/6J mice, 1 h, n = 5) was 0.54 ± 0.09 % ID/organ. For the same compound, the “Organ distribution Stomach” value (C57BL/6J mice, 1 h, n = 5) was 6 ± 1 % ID/organ, the “Organ distribution Thyroid” value (C57BL/6J mice, 1 h, n = 5) was 1.3 ± 0.4 % ID/organ and the “Organ distribution Tumour” value (C57BL/6J mice, 1 h, n = 5) was 0.64 ± 0.20 % ID/organ. For the same compound, the “Organ distribution Intestine” value (C57BL/6J mice, 6 h, n = 5) was 9 ± 1 % ID/organ, the “Organ distribution Liver” value (C57BL/6J mice, 6 h, n = 5) was 0.95 ± 0.15 % ID/organ and the “Organ distribution Spleen” value (C57BL/6J mice, 6 h, n = 5) was 0.13 ± 0.02 % ID/organ. For the same compound, the “Organ distribution Stomach” value (C57BL/6J mice, 6 h, n = 5) was 6 ± 2 % ID/organ, the “Organ distribution Thyroid” value (C57BL/6J mice, 6 h, n = 5) was 4.0 ± 0.9 % ID/organ and the “Organ distribution Tumour” value (C57BL/6J mice, 6 h, n = 5) was 1.0 ± 0.2 % ID/organ. For the same compound, the “Organ distribution Intestine” value (C57BL/6J mice, 24 h, n = 5) was 0.40 ± 0.07 % ID/organ, the “Organ distribution Liver” value (C57BL/6J mice, 24 h, n = 5) was 0.14 ± 0.03 % ID/organ and the “Organ distribution Spleen” value (C57BL/6J mice, 24 h, n = 5) was 0.02 ± 0.03 % ID/organ. The “Organ distribution Stomach” value (C57BL/6J mice, 24 h, n = 5) was 0.17 ± 0.04 % ID/organ, the “Organ distribution Thyroid” value (C57BL/6J mice, 24 h, n = 5) was 6.0 ± 1.6 % ID/organ and the “Organ distribution Tumour” value (C57BL/6J mice, 24 h, n = 5) was 0.62 ± 0.22 % ID/organ. The “tumour standardized uptake value (SUVt)” value (B16 tumour, C57BL/6J mice, 1 h) was 1.8 ± 0.1, the “Uptake Lung” value [1] was 7.5 ± 0.2 % ID/g and the “uptake BLOOD” value [1] was 3.1 ± 0.1 % ID/g. For the same compound, the “uptake BRAIN” value [1] was 0.42 ± 0.02 % ID/g, the “uptake HEART” value [1] was 1.9 ± 0.1 % ID/g and the “uptake KIDNEY” value [1] was 3.5 ± 0.2 % ID/g. For the same compound, the “uptake LIVER” value [1] was 2.1 ± 0.2 % ID/g, the “uptake TUMOUR” value [1] was 5.6 ± 0.3 % ID/g and the “tumour standardized uptake value (SUVt)” value (B16 tumour, C57BL/6J mice, 6 h) was 2.2 ± 0.4. For the same compound, the “Uptake Lung” value [2] was 2.2 ± 0.2 % ID/g, the “uptake BLOOD” value [2] was 2.4 ± 0.3 % ID/g and the “uptake BRAIN” value [2] was 0.16 ± 0.03 % ID/g. For the same compound, the “uptake HEART” value [2] was 0.8 ± 0.1 % ID/g, the “uptake KIDNEY” value [2] was 1.7 ± 0.3 % ID/g and the “uptake LIVER” value [2] was 1.1 ± 0.1 % ID/g. For the same compound, the “uptake TUMOUR” value [2] was 5.0 ± 0.7 % ID/g, the “tumour standardized uptake value (SUVt)” value (B16 tumour, C57BL/6J mice, 24 h) was 5.1 ± 1.3 and the “Uptake Lung” value [3] was 0.15 ± 0.3 % ID/g. For the same compound, the “uptake BLOOD” value [3] was 0.13 ± 0.03 % ID/g, the “uptake BRAIN” value [3] was 0.02 % ID/g and the “uptake HEART” value [3] was 0.09 ± 0.02 % ID/g. The “uptake KIDNEY” value [3] was 0.12 ± 0.03 % ID/g, the “uptake LIVER” value [3] was 0.15 ± 0.03 % ID/g and the “uptake TUMOUR” value [3] was 2.3 ± 0.4 % ID/g.
`CCN(CC)CCNC(=O)c1ccnc(F)c1` [[^18F]MEL8, 6-Fluoro-N-[2-(diethylamino)ethyl]isonicotinamide] was tested, and the “uptake BLOOD” value [4] was 2.55 % ID/g, the “uptake BONE” value [4] was 4.03 % ID/g and the “uptake BRAIN” value [4] was 3.47 % ID/g. For the same compound, the “uptake EYES” value [4] was 17.25 % ID/g, the “uptake GIT” value [4] was 7.03 % ID/g and the “uptake HEART” value [4] was 3.51 % ID/g. The “uptake KIDNEY” value [4] was 19.45 % ID/g, the “uptake LIVER” value [4] was 12.65 % ID/g and the “uptake LUNGS” value [4] was 5.67 % ID/g. The “uptake MUSCLE” value [4] was 4.16 % ID/g, the “uptake SKIN” value [4] was 2.40 % ID/g and the “uptake SPLEEN” value [4] was 10.27 % ID/g. The “uptake STOMACH” value [4] was 13.20 % ID/g, the “uptake THYROID” value [4] was 4.81 % ID/g and the “uptake TUMOUR” value [4] was 6.99 % ID/g. The “uptake BLOOD” value (B16 melanoma bearing mice, 1 h) was 0.77 % ID/g, the “uptake BONE” value (B16 melanoma bearing mice, 1 h) was 1.52 % ID/g and the “uptake BRAIN” value (B16 melanoma bearing mice, 1 h) was 1.37 % ID/g. For the same compound, the “uptake EYES” value (B16 melanoma bearing mice, 1 h) was 23.66 % ID/g, the “uptake GIT” value (B16 melanoma bearing mice, 1 h) was 2.85 % ID/g and the “uptake HEART” value (B16 melanoma bearing mice, 1 h) was 1.14 % ID/g. The “uptake KIDNEY” value (B16 melanoma bearing mice, 1 h) was 4.75 % ID/g, the “uptake LIVER” value (B16 melanoma bearing mice, 1 h) was 3.19 % ID/g and the “uptake LUNGS” value (B16 melanoma bearing mice, 1 h) was 1.81 % ID/g. The “uptake MUSCLE” value (B16 melanoma bearing mice, 1 h) was 1.27 % ID/g, the “uptake SKIN” value (B16 melanoma bearing mice, 1 h) was 0.88 % ID/g and the “uptake SPLEEN” value (B16 melanoma bearing mice, 1 h) was 3.19 % ID/g. For the same compound, the “uptake STOMACH” value (B16 melanoma bearing mice, 1 h) was 5.25 % ID/g, the “uptake THYROID” value (B16 melanoma bearing mice, 1 h) was 2.22 % ID/g and the “uptake TUMOUR” value (B16 melanoma bearing mice, 1 h) was 12.22 % ID/g. For the same compound, the “uptake BLOOD” value (B16 melanoma bearing mice, 3 h) was 0.12 % ID/g, the “uptake BONE” value (B16 melanoma bearing mice, 3 h) was 0.77 % ID/g and the “uptake BRAIN” value (B16 melanoma bearing mice, 3 h) was 0.19 % ID/g. The “uptake EYES” value (B16 melanoma bearing mice, 3 h) was 18.81 % ID/g, the “uptake GIT” value (B16 melanoma bearing mice, 3 h) was 0.72 % ID/g and the “uptake HEART” value (B16 melanoma bearing mice, 3 h) was 0.33 % ID/g. For the same compound, the “uptake KIDNEY” value (B16 melanoma bearing mice, 3 h) was 0.45 % ID/g, the “uptake LIVER” value (B16 melanoma bearing mice, 3 h) was 0.42 % ID/g and the “uptake LUNGS” value (B16 melanoma bearing mice, 3 h) was 0.37 % ID/g. For the same compound, the “uptake MUSCLE” value (B16 melanoma bearing mice, 3 h) was 0.28 % ID/g, the “uptake SKIN” value (B16 melanoma bearing mice, 3 h) was 0.15 % ID/g and the “uptake SPLEEN” value (B16 melanoma bearing mice, 3 h) was 2.32 % ID/g. The “uptake STOMACH” value (B16 melanoma bearing mice, 3 h) was 0.82 % ID/g, the “uptake THYROID” value (B16 melanoma bearing mice, 3 h) was 1.48 % ID/g and the “uptake TUMOUR” value (B16 melanoma bearing mice, 3 h) was 8.80 % ID/g. The “uptake BLOOD” value (B16 melanoma bearing mice, 6 h) was 0.06 % ID/g, the “uptake BONE” value (B16 melanoma bearing mice, 6 h) was 0.43 % ID/g and the “uptake BRAIN” value (B16 melanoma bearing mice, 6 h) was 0.07 % ID/g. For the same compound, the “uptake EYES” value (B16 melanoma bearing mice, 6 h) was 16.49 % ID/g, the “uptake GIT” value (B16 melanoma bearing mice, 6 h) was 0.23 % ID/g and the “uptake HEART” value (B16 melanoma bearing mice, 6 h) was 0.17 % ID/g. The “uptake KIDNEY” value (B16 melanoma bearing mice, 6 h) was 0.25 % ID/g, the “uptake LIVER” value (B16 melanoma bearing mice, 6 h) was 0.60 % ID/g and the “uptake LUNGS” value (B16 melanoma bearing mice, 6 h) was 0.14 % ID/g. The “uptake MUSCLE” value (B16 melanoma bearing mice, 6 h) was 0.17 % ID/g, the “uptake SKIN” value (B16 melanoma bearing mice, 6 h) was 0.29 % ID/g and the “uptake SPLEEN” value (B16 melanoma bearing mice, 6 h) was 1.31 % ID/g. The “uptake STOMACH” value (B16 melanoma bearing mice, 6 h) was 0.30 % ID/g, the “uptake THYROID” value (B16 melanoma bearing mice, 6 h) was 1.02 % ID/g and the “uptake TUMOUR” value (B16 melanoma bearing mice, 6 h) was 7.20 % ID/g.
